In patent US20060223891A1, “Use of alverine, alone or in combination with a tricyclic antidepressant or an antidepressant which is a specific inhibitor of serotonin reuptake for treatment of depression” (CEREP, priority 2003, published 2006):
“And” between values parts separate entries of the source, which are not always exact repeats. Identical values can stand only once. “Also recorded” adds a separate entry of the source. Counter-ions that a name gives are not always drawn.

What was measured:
Assay type in all cases: in vivo
Swiss mice CD1 [1] = assay: forced swimming test, Alverine administered intraperitoneally (Example 1); set-up: key to Dunnett test: * indicates a significant difference for p < 0.05 (Dunnett test); ns indicates an insignificant result; settings: for immobility time, individual mice / immobility time, Average: 30 minutes prior to the test; for immobility time, Average: N = 10; for % of variation of immobility time: vs average of excipient group; for Dunnett test: vs excipient group
Description: Antidepressive Activity Test on Alverine administered intraperitoneally on a batch of mice. To establish the advantages according to the present invention a study was carried out on a batch of 50 mice. They were divided into 5 groups of 10 mice each. These are Swiss mice CD1 (CD-1®(ICR) IGS (Charles River France) weighing between 25 and 35 g. The substance to be tested is Alverine citrate (Sigma, in the form of dry powder, with a salt/base ratio of 1.68) comparatively to imipramine chlorhydrate (Sigma, in the form of dry powder, with a salt/base ratio of 1.13). The doses are expressed in terms of free active substances. The substances are prepared extemporaneously in the excipient. The treatments are administered 30 minutes prior to the test in a coded and random order intraperitoneally with a volume of 10 ml/kg. Thirty minutes following administration the five groups of mice are subjected to the forced swimming test, in a vertical Plexiglas cylinder (height 24 cm, diameter 9 cm) containing water (height 6 cm, temperature 18-22° C.). The total duration of immobility is measured over the last four minutes of the test, six minutes in total. A mouse is deemed immobile when it ceases struggling and floats in the water without movements superfluous to those allowing it to keep its head above water. A drop in immobility time is the reflection of an antidepressant effect. The results are expressed in total duration of immobility in seconds and as a percentage of variation of the total duration of immobility calculated from the average value of the sample group. The statistical significance between the treated groups and the sample group is determined by a Dunnett test using the residual variation according to analysis of the variance (P<0.05). The data are analysed using <<SigmaStat>> software. The results obtained are presented in the form of the following table, and in the form of a histogram, in FIG. 1.

Swiss mice CD1 [2] = assay: forced swimming test, Alverine associated with fluoxetine, intraperitoneally (Example 3, test no. 2); settings: for immobility time, individual mice / immobility time, Average: 30 minutes prior to the test; for immobility time, Average: n = 10; for % of variation of immobility time: vs average of excipient group; for duration of immobilisation as compared to the sample group (in words): tested alone at 3 mg/kg
Description: The treatments are co-administered 30 minutes prior to the test in a coded and random order intraperitoneally with a volume of 10 ml/kg (5 ml/kg for each administration). […] The total duration of immobility is measured over the last four minutes of the test, six minutes in total. A mouse is deemed immobile when it ceases struggling and floats in the water without movements superfluous to those allowing it to keep its. head above water. A drop in immobility time is the reflection of an antidepressant effect. The results are expressed in total duration of immobility in seconds and as a percentage of variation of the total duration of immobility calculated from the average value of the sample group. The statistical significance between two treated groups is determined by using a Student test (P<0.05). The data are analysed using <<SigmaStat>> software.

Swiss mice CD1 [3] = assay: forced swimming test, Alverine associated with imipramine, intraperitoneally (Example 3, test no. 1); set-up: key to Dunnett test: * indicates a significant difference for p < 0.05 (Dunnett test); ns indicates an insignificant result; settings: for immobility time, individual mice / immobility time, Average / % of variation of immobility time / Dunnett test: intraperitoneally; for immobility time, individual mice / immobility time, Average: 30 minutes prior to the test; for immobility time, Average: n = 10; for % of variation of immobility time: vs average of excipient group; for Dunnett test: vs excipient group; for duration of immobilisation as compared to the sample group (in words): tested alone at 3 mg/kg
Description: The treatments are co-administered 30 minutes prior to the test in a coded and random order intraperitoneally with a volume of 10 ml/kg (5 ml/kg for each administration). Thirty minutes following administration the six groups of mice are subjected to the forced swimming test, in a vertical Plexiglas cylinder (height 24 cm, diameter 9 cm) containing water (height 6 cm, temperature 18-22° C.). The total duration of immobility is measured over the last four minutes of the test, six minutes in total. A mouse is deemed immobile when it ceases struggling and floats in the water without movements superfluous to those allowing it to keep its. head above water. A drop in immobility time is the reflection of an antidepressant effect. The results are expressed in total duration of immobility in seconds and as a percentage of variation of the total duration of immobility calculated from the average value of the sample group. The statistical significance between two treated groups is determined by using a Student test (P<0.05). The data are analysed using <<SigmaStat>> software.

Swiss mice CD1 [4] = assay: forced swimming test, Alverine administered orally (Example 2); set-up: key to Dunnett test: * indicates a significant difference for p < 0.05 (Dunnett test); ns indicates an insignificant result; settings: for immobility time, individual mice / immobility time, Average: 60 minutes prior to the test; for immobility time, Average: N = 10; for % of variation of immobility time: vs average of excipient group; for Dunnett test: vs excipient group
Description: Antidepressive Activity Test on Alverine administered orally on a batch of mice.
To establish the advantages according to the present invention a study, was carried out on a batch of 50 mice. They were divided into 5 groups of 10 mice each. These are Swiss mice CD1 (CD-1® (ICR) IGS (Charles River France) weighing between 25 and 35 g.
The substance to be tested is Alverine citrate (Sigma, in the form of dry powder, with a salt/base ratio of 1.68) comparatively to imipramine chlorhydrate (Sigma, in the form of dry powder, with a salt/base ratio of 1.13).
The fifth group is treated with imipramine (tricyclic antidepressant) at a dose of 30 mg/kg The doses are expressed in terms of free active substances. The substances are prepared extemporaneously in the excipient. […]
One hour following administration the five groups of mice are subjected to the forced swimming test, in a vertical Plexiglas cylinder (height 24 cm, diameter 9 cm) containing water (height 6 cm, temperature 18-22° C.). The total duration of immobility is measured over the last four minutes of the test, six minutes in total. A mouse is deemed immobile when it ceases struggling and floats in the water without movements superfluous to those allowing it to keep its head above water. A drop in immobility time is the reflection of an antidepressant effect.
The results are expressed in total duration of immobility in seconds and as a percentage of variation of the total duration of immobility calculated from the average value of the sample group.
The statistical significance between the treated groups and the sample group is determined by a Dunnett test using the residual variation according to analysis of the. variance (P<0.05). The data are analysed using <<SigmaStat>> software.

[5] = 3 mg/kg alone, intraperitoneally
[6] = 10 mg/kg alone, intraperitoneally

Compound: CCN(CCCc1ccccc1)CCCc1ccccc1 [Alverine citrate, N-ethyl-3,3′-diphenyldipropylamine]
- immobility time, individual mice (Swiss mice CD1 [1]; 3 mg/kg intraperitoneally): 128 s and 82 s and 151 s and 132 s and 127 s and 88 s and 85 s and 99 s and 93 s and 118 s
- immobility time, Average (Swiss mice CD1 [1]; 3 mg/kg intraperitoneally): 110.3 s
- % of variation of immobility time (Swiss mice CD1 [1]; 3 mg/kg intraperitoneally): −15%
- Dunnett test (Swiss mice CD1 [1]; 3 mg/kg intraperitoneally): ns
- immobility time, individual mice (Swiss mice CD1 [1]; 10 mg/kg intraperitoneally): 29 s and 86 s and 28 s and 30 s and 90 s and 99 s and 65 s and 129 s and 57 s and 3 s
- immobility time, Average (Swiss mice CD1 [1]; 10 mg/kg intraperitoneally): 61.6 s
- % of variation of immobility time (Swiss mice CD1 [1]; 10 mg/kg intraperitoneally): −53%
- Dunnett test (Swiss mice CD1 [1]; 10 mg/kg intraperitoneally): * (* indicates a significant difference for p < 0.05 (Dunnett test))
- immobility time, individual mice (Swiss mice CD1 [1]; 30 mg/kg intraperitoneally): 97 sec and 3 sec and 66 sec and 36 sec and 0 sec and 15 sec and 7 sec (2×) and 16 sec and 12 sec
- immobility time, Average (Swiss mice CD1 [1]; 30 mg/kg intraperitoneally): 25.9 s
- % of variation of immobility time (Swiss mice CD1 [1]; 30 mg/kg intraperitoneally): −80%
- Dunnett test (Swiss mice CD1 [1]; 30 mg/kg intraperitoneally): * (* indicates a significant difference for p < 0.05 (Dunnett test))
- antidepressant effect (in words) (Swiss mice CD1 [1]; injected intraperitoneally, 3 to 30 mg/kg, mice): antidepressant effect proportional to the dose; also recorded: significant antidepressant effect
- immobility time, individual mice (Swiss mice CD1 [2]; [5]): 119 sec and 138 sec and 117 sec (2×) and 110 sec and 73 sec and 47 sec and 124 sec and 72 sec and 32 sec
- immobility time, Average (Swiss mice CD1 [2]; [5]): 94.9 s
- % of variation of immobility time (Swiss mice CD1 [2]; [5]): −37%
- immobility time, individual mice (Swiss mice CD1 [2]; [6]): 63 sec and 75 sec (2×) and 77 sec and 46 sec and 6 sec and 113 sec and 89 sec and 104 sec and 125 sec
- immobility time, Average (Swiss mice CD1 [2]; [6]): 77.3 s
- % of variation of immobility time (Swiss mice CD1 [2]; [6]): −49%
- Dunnett test (Swiss mice CD1 [2]; 10 mg/kg alone, intraperitoneally, vs excipient group): * (* indicates a significant difference for p < 0.05 (Dunnett test))
- duration of immobilisation as compared to the sample group (in words) (Swiss mice CD1 [2]): decrease, statistically insignificant
- immobility time, individual mice (Swiss mice CD1 [3]; 3 mg/kg alone): 108 s and 134 s and 113 s and 65 s and 85 s and 73 s and 79 s and 125 s and 95 s and 140 s
- immobility time, Average (Swiss mice CD1 [3]; 3 mg/kg alone): 101.7 s
- % of variation of immobility time (Swiss mice CD1 [3]; 3 mg/kg alone): −30%
- Dunnett test (Swiss mice CD1 [3]; 3 mg/kg alone): ns
- immobility time, individual mice (Swiss mice CD1 [3]; 10 mg/kg alone): 28 s and 10 s and 1 s and 74 s and 22 s and 70 s and 69 s and 67 s and 42 s and 57 s
- immobility time, Average (Swiss mice CD1 [3]; 10 mg/kg alone): 44.0 s
- % of variation of immobility time (Swiss mice CD1 [3]; 10 mg/kg alone): −70%
- Dunnett test (Swiss mice CD1 [3]; 10 mg/kg alone): * (* indicates a significant difference for p < 0.05 (Dunnett test))
- duration of immobilisation as compared to the sample group (in words) (Swiss mice CD1 [3]): decrease, statistically insignificant
- immobility time, individual mice (Swiss mice CD1 [4]; 10 mg/kg orally): 95 s and 104 s and 111 s and 126 s and 108 s and 78 s and 115 s and 106 s and 113 s and 86 s
- immobility time, Average (Swiss mice CD1 [4]; 10 mg/kg orally): 104.2 s
- % of variation of immobility time (Swiss mice CD1 [4]; 10 mg/kg orally): −30%
- Dunnett test (Swiss mice CD1 [4]; 10 mg/kg orally): ns
- immobility time, individual mice (Swiss mice CD1 [4]; 30 mg/kg orally): 80 sec and 64 sec and 70 sec and 105 sec (3×) and 41 sec and 63 sec and 113 sec and 104 sec
- immobility time, Average (Swiss mice CD1 [4]; 30 mg/kg orally): 85.0 s
- % of variation of immobility time (Swiss mice CD1 [4]; 30 mg/kg orally): −43%
- Dunnett test (Swiss mice CD1 [4]; 30 mg/kg orally): * (* indicates a significant difference for p < 0.05 (Dunnett test))
- immobility time, individual mice (Swiss mice CD1 [4]; 100 mg/kg orally): 129 s and 67 s and 6 s and 105 s and 75 s and 81 s and 5 s and 37 s and 32 s and 52 s
- immobility time, Average (Swiss mice CD1 [4]; 100 mg/kg orally): 58.9 s
- % of variation of immobility time (Swiss mice CD1 [4]; 100 mg/kg orally): −60%
- Dunnett test (Swiss mice CD1 [4]; 100 mg/kg orally): * (* indicates a significant difference for p < 0.05 (Dunnett test))
- secondary effect observed (Swiss mice CD1 [4]; mice treated orally, 10 to 100 mg/kg): no secondary effect was observed
- antidepressant effect (in words) (Swiss mice CD1 [4]; orally, 10 to 100 mg/kg, mice): significant antidepressant effect; also recorded: antidepressant effect proportional to the dose

Compound: CNCCC(Oc1ccc(C(F)(F)F)cc1)c1ccccc1 (stereo not shown) [Fluoxetine, fluoxetine]
- duration of immobilisation as compared to the sample group (in words) (Swiss mice CD1 [2]): decrease, statistically insignificant

Compound: CN(C)CCCN1c2ccccc2CCc2ccccc21 [Imipramine, imipramine]
- duration of immobilisation as compared to the sample group (in words) (Swiss mice CD1 [3]): decrease, statistically insignificant
